# Tests used:
# Experiment in all cases: radiometric filter-binding kinase assay, Kinase HotSpot
# Details in all cases: compound 0.5 µM; ATP 10 µM
# AURKA (human) = AURKA (human) (UniProt O14965)
# PLK2 (human) = PLK2 (human) (UniProt Q9NYY3)
# FGFR3 (human) = FGFR3 (human) (UniProt P22607)
# SRC (human) = SRC (human) (UniProt P12931)
# GSK3A (human) = GSK3A (human) (UniProt P49840)
# MARK3 (human) = MARK3 (human) (UniProt P27448)
# SYK (human) = SYK (human) (UniProt P43405)
# STK24 (human) = STK24 (human) (UniProt Q9Y6E0)
# TGFBR1 (human) = TGFBR1 (human) (UniProt P36897)
# CSNK1G3 (human) = CSNK1G3 (human) (UniProt Q9Y6M4)
# Sequence of CSNK1G3 (human) (Q9Y6M4 whole entry, looked up): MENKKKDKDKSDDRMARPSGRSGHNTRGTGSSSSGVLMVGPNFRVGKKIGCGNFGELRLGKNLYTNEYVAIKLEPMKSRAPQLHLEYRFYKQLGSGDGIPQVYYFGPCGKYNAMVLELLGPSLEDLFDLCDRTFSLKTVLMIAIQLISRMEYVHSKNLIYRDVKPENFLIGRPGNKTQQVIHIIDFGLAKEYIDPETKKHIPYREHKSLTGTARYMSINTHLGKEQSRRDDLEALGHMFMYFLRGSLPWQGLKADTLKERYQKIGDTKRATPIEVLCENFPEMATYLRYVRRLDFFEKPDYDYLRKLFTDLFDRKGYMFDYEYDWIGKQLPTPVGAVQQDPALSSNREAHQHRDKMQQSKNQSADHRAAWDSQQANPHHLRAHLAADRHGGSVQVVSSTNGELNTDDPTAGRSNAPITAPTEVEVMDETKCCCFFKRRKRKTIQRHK
# MAP4K2 (human) = MAP4K2 (human) (UniProt Q12851)
# MARK4 (human) = MARK4 (human) (UniProt Q96L34)
# MAPK12 (human) = MAPK12 (human) (UniProt P53778)
# ZAP70 (human) = ZAP70 (human) (UniProt P43403)
# PTK2B (human) = PTK2B (human) (UniProt Q14289)
# RIPK2 (human) = RIPK2 (human) (UniProt O43353)
# CSNK2A1 (human) = CSNK2A1 (human) (UniProt P68400)
# Sequence of CSNK2A1 (human) (P68400 whole entry, looked up): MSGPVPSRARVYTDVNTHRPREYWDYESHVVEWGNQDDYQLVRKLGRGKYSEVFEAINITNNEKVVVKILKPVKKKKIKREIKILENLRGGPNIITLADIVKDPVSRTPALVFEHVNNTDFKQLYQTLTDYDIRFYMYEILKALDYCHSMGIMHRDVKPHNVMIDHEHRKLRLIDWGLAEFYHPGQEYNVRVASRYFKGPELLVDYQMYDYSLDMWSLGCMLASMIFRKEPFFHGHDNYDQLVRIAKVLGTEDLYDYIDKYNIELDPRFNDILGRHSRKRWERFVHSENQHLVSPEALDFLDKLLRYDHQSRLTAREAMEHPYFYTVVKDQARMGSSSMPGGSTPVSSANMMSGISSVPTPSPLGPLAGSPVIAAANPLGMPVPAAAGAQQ
# ACVR1B (human) = ACVR1B (human) (UniProt P36896)
# RAF1 (human) = RAF1 (human) (UniProt P04049)
# AKT1 (human) = AKT1 (human) (UniProt P31749)
# CDC42BPA (human) = CDC42BPA (human) (UniProt Q5VT25)
# Sequence of CDC42BPA (human) (Q5VT25 whole entry, looked up): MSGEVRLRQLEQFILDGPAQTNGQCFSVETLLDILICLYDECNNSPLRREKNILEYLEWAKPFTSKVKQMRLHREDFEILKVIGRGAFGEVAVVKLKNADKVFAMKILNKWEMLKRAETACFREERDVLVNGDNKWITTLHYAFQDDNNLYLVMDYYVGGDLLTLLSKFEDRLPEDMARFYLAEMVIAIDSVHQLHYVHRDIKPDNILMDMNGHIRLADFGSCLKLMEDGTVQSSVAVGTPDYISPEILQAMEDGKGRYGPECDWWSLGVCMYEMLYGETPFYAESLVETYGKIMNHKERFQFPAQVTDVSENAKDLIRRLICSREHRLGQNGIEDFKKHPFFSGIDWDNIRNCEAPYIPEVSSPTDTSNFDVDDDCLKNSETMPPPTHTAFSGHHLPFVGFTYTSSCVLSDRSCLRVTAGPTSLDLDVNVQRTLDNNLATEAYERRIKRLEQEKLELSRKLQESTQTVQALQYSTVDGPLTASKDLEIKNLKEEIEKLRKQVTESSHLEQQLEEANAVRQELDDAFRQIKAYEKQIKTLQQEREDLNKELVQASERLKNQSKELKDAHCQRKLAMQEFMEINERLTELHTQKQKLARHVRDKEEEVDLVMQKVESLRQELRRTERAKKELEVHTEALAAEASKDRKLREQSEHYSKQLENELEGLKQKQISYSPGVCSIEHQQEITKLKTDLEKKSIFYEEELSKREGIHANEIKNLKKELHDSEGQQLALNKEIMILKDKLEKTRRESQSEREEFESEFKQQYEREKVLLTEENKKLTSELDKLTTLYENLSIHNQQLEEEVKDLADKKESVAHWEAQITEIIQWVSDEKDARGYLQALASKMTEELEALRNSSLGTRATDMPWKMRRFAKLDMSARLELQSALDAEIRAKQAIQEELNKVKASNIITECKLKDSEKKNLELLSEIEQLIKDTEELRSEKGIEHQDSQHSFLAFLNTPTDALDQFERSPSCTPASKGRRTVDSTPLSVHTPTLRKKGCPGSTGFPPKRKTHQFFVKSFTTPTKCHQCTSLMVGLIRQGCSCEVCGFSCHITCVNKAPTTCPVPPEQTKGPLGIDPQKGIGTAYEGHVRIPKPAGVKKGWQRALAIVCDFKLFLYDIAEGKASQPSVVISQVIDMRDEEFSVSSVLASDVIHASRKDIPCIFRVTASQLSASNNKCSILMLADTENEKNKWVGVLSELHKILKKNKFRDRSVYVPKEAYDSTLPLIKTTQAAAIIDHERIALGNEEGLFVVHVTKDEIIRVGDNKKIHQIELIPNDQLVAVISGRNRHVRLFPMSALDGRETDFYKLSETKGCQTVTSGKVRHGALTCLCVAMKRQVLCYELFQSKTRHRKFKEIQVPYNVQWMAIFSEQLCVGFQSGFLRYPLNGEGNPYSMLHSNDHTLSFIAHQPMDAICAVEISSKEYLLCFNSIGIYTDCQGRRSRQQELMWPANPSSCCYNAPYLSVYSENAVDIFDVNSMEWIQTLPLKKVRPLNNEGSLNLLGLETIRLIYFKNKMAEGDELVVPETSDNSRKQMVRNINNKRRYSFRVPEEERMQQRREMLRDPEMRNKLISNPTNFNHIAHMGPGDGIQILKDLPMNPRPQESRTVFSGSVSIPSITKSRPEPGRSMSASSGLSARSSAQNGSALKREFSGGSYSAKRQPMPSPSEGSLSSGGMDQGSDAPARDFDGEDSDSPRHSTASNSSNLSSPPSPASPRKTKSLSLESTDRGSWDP
# TEC (human) = TEC (human) (UniProt P42680)
# MYLK (human) = MYLK (human) (UniProt Q15746)
# Sequence of MYLK (human) (Q15746 whole entry, looked up): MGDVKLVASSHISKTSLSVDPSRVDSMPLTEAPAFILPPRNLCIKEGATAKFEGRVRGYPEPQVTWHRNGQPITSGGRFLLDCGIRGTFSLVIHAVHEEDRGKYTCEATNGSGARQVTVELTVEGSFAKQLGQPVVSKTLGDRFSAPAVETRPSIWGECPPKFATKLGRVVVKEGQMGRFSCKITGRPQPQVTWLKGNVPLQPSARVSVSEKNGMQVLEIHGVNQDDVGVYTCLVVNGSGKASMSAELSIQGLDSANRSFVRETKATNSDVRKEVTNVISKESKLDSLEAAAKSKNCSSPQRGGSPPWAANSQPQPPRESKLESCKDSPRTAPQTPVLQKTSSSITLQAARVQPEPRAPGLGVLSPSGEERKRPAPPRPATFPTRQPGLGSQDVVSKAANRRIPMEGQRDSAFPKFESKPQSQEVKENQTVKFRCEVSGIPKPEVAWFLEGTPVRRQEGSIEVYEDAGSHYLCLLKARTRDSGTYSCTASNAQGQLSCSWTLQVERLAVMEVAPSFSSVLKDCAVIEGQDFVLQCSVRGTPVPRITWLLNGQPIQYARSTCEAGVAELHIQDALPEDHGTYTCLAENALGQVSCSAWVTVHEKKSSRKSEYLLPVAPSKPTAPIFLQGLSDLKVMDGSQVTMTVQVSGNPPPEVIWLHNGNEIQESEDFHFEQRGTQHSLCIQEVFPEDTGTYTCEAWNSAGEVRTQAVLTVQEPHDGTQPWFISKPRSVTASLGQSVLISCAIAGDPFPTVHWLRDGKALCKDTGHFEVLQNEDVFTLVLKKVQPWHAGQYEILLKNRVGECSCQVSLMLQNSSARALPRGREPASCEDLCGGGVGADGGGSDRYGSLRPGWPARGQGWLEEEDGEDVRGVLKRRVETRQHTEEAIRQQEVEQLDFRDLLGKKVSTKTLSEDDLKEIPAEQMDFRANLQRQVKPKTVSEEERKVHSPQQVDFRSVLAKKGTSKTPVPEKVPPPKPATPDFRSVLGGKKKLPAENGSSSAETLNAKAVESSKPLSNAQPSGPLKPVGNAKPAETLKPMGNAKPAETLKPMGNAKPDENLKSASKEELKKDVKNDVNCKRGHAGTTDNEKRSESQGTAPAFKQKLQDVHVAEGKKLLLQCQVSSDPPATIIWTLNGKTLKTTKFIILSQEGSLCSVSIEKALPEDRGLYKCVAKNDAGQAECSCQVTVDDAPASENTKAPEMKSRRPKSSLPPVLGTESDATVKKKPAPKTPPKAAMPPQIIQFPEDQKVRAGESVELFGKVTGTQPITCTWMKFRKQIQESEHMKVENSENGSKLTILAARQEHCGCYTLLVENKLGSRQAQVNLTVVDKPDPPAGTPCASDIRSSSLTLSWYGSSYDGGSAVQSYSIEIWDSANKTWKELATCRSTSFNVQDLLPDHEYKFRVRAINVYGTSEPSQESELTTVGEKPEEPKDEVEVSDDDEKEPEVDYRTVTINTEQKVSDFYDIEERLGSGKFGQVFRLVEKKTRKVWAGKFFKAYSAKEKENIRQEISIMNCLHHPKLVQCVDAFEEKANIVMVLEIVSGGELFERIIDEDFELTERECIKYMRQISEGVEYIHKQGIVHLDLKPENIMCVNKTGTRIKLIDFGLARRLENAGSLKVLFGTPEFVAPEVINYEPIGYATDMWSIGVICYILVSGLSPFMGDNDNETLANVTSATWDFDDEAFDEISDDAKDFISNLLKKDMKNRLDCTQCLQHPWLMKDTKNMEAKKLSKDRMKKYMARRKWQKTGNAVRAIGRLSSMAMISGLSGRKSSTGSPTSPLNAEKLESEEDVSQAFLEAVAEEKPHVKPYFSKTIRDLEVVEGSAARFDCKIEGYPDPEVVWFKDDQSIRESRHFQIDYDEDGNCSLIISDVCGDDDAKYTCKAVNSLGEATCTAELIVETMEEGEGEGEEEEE
# PRKACA (human) = PRKACA (human) (UniProt P17612)
# NEK4 (human) = NEK4 (human) (UniProt P51957)
# ROCK2 (human) = ROCK2 (human) (UniProt O75116)
# SLK (human) = SLK (human) (UniProt Q9H2G2)
# [1] = molecular target: JAK1 JH1 catalytic (human) (UniProt P23458)
# MAP3K3 (human) = MAP3K3 (human) (UniProt Q99759)
# EPHA5 (human) = EPHA5 (human) (UniProt P54756)
# STK17A (human) = STK17A (human) (UniProt Q9UEE5)
# BTK (human) = BTK (human) (UniProt Q06187)
# MAPK14 (human) = MAPK14 (human) (UniProt Q16539)
# CSNK1A1 (human) = CSNK1A1 (human) (UniProt P48729)
# CAMKK2 (human) = CAMKK2 (human) (UniProt Q96RR4)
# Sequence of CAMKK2 (human) (Q96RR4 whole entry, looked up): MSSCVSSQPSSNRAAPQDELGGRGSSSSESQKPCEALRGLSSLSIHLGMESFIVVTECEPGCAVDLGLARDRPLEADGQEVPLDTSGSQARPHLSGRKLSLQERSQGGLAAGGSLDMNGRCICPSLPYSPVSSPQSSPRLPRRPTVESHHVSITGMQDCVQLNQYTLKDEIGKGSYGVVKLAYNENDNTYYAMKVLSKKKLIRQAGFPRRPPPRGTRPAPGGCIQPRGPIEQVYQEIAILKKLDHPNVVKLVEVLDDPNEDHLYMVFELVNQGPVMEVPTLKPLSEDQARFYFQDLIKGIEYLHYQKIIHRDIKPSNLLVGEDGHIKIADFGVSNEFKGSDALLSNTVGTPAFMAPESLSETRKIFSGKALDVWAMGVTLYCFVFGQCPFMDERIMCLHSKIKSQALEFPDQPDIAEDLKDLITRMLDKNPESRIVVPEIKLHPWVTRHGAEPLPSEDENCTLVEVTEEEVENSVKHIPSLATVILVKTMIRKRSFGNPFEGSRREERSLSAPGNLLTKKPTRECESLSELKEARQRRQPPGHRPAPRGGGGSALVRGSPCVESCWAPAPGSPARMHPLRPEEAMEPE
# PRKD2 (human) = PRKD2 (human) (UniProt Q9BZL6)
# EPHB2 (human) = EPHB2 (human) (UniProt P29323)
# CDK9 CCNT1 (human) = CDK9 CCNT1 (human) (UniProt P50750+O60563)
# AXL (human) = AXL (human) (UniProt P30530)
# PAK6 (human) = PAK6 (human) (UniProt Q9NQU5)
# [2] = molecular target: TYK2 JH1 catalytic (human) (UniProt P29597)
# TSSK2 (human) = TSSK2 (human) (UniProt Q96PF2)
structure (smiles),measurement,setting,value
N#C/C(=C\c1ccc(O)c(O)c1)C(=O)NCc1ccccc1,residual activity,AURKA (human),92.2%
same,residual activity,PLK2 (human),105%
same,residual activity,FGFR3 (human),98.2%
same,residual activity,SRC (human),94.8%
same,residual activity,GSK3A (human),96.5%
same,residual activity,MARK3 (human),97.5%
same,residual activity,SYK (human),116%
same,residual activity,STK24 (human),100%
same,residual activity,TGFBR1 (human),97.6%
same,residual activity,CSNK1G3 (human),104%
same,residual activity,MAP4K2 (human),103%
same,residual activity,MARK4 (human),104%
same,residual activity,MAPK12 (human),94.2%
same,residual activity,ZAP70 (human),101%
same,residual activity,PTK2B (human),92.6%
same,residual activity,RIPK2 (human),101%
same,residual activity,CSNK2A1 (human),86.6%
same,residual activity,ACVR1B (human),98%
same,residual activity,RAF1 (human),92.8%
same,residual activity,AKT1 (human),101%
same,residual activity,CDC42BPA (human),99.4%
same,residual activity,TEC (human),123%
same,residual activity,MYLK (human),94.5%
same,residual activity,PRKACA (human),104%
same,residual activity,NEK4 (human),98.6%
same,residual activity,ROCK2 (human),94%
same,residual activity,SLK (human),99.1%
same,residual activity,[1],93.8%
same,residual activity,MAP3K3 (human),102%
same,residual activity,EPHA5 (human),103%
same,residual activity,STK17A (human),98.8%
same,residual activity,BTK (human),99.8%
same,residual activity,MAPK14 (human),108%
same,residual activity,CSNK1A1 (human),110%
same,residual activity,CAMKK2 (human),97.4%
same,residual activity,PRKD2 (human),101%
same,residual activity,EPHB2 (human),99.7%
same,residual activity,CDK9 CCNT1 (human),74.9%
same,residual activity,AXL (human),95.1%
same,residual activity,PAK6 (human),99.4%
same,residual activity,[2],97.1%
same,residual activity,TSSK2 (human),90%
NC(=O)c1cccc(-c2cc(Nc3ccc(OC(F)(F)F)cc3)ncn2)c1,residual activity,AURKA (human),107%
same,residual activity,PLK2 (human),98%
same,residual activity,FGFR3 (human),93.2%
same,residual activity,SRC (human),97%
same,residual activity,GSK3A (human),93.9%
same,residual activity,MARK3 (human),100%
same,residual activity,SYK (human),99.9%
same,residual activity,STK24 (human),89.5%
same,residual activity,TGFBR1 (human),103%
same,residual activity,CSNK1G3 (human),93.4%
same,residual activity,MAP4K2 (human),132%
same,residual activity,MARK4 (human),98.1%
same,residual activity,MAPK12 (human),111%
same,residual activity,ZAP70 (human),97.1%
same,residual activity,PTK2B (human),94.6%
same,residual activity,RIPK2 (human),89.3%
same,residual activity,CSNK2A1 (human),94.6%
same,residual activity,ACVR1B (human),103%
same,residual activity,RAF1 (human),105%
same,residual activity,CDC42BPA (human),99.3%
same,residual activity,TEC (human),139%
same,residual activity,MYLK (human),91.9%
same,residual activity,PRKACA (human),94.2%
same,residual activity,NEK4 (human),98%
same,residual activity,ROCK2 (human),98.5%
same,residual activity,SLK (human),98.2%
same,residual activity,[1],98.9%
same,residual activity,MAP3K3 (human),104%
same,residual activity,EPHA5 (human),103%
same,residual activity,STK17A (human),98.7%
same,residual activity,BTK (human),99.1%
same,residual activity,MAPK14 (human),92%
same,residual activity,CSNK1A1 (human),103%
same,residual activity,CAMKK2 (human),99.1%
same,residual activity,PRKD2 (human),102%
same,residual activity,EPHB2 (human),102%
same,residual activity,CDK9 CCNT1 (human),82.2%
same,residual activity,AXL (human),101%
same,residual activity,PAK6 (human),102%
same,residual activity,[2],82.7%
same,residual activity,TSSK2 (human),97%
